Reference: patent US11130974B2, “Hydroxylated fatty acid homopolymer and production method thereof” (KYOTO UNIVERSITY, priority 2017, dated 2021)

Target: T1, hydroxylated fatty acid dehydrogenase (CLA-DH) (Lactiplantibacillus plantarum, UniProt P0DX40)
T1 construct: made in house; host or cells: Escherichia coli (cell-free extract, not purified)
T1 sequence (P0DX40 1-286): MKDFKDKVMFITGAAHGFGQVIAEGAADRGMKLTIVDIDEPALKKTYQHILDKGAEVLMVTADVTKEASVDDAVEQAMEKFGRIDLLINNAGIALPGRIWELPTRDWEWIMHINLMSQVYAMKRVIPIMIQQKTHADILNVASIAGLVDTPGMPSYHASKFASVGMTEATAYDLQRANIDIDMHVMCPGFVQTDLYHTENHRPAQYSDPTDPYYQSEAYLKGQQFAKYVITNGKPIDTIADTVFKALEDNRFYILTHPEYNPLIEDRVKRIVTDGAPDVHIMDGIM
Experiment: Comparison of oxidation stability: oxidation reaction with NAD+ in the presence of hydroxylated fatty acid dehydrogenase (CLA-DH), NADH measured at 340 nm
Format: biochemical
Conditions: 0.143 mg/mL substrate (0.48 mM HYA), 4 mM NAD+, CLA-DH-expressing Escherichia coli cell-free extract, 37° C., about 6 min
Description: The oxidation stability was compared between the reaction extract (homopolymer mixture) obtained in Example 1 and HYA. The oxidation reaction was performed using NAD^+ as an electron receptor in the presence of hydroxylated fatty acid dehydrogenase (CLA-DH) (S. Kishino et al., Polyunsaturated fatty acid saturation by gut lactic acid bacteria affecting host lipid composition. Proc. Natl. Acad. Sci. USA, 110(44), 17808-17813, 2013).
The reaction mixture (3 mL) contained CLA-DH-expressing Escherichia coli cell-free extract (150 μL, derived from 50 mg Escherichia coli wet cells) as hydroxylated fatty acid dehydrogenase, 4 mM NAD^+, 150 μL of ethanol, and 0.48 mM (0.143 mg/mL) HYA or equal amount (0.143 mg/mL) of a homopolymer mixture as a substrate, and the reaction was started by the addition of hydroxylated fatty acid dehydrogenase and performed at 37° C. for about 6 min. […] The progress of oxidation was quantified by measuring the change in absorbance at 340 nm of NADH amount produced by the oxidation of the substrate (the molecular absorption coefficient of NADH was 6.3×10^3 L·mol^−1 cm^−1).

Question: For `CCCCC/C=C\CC(O)CCCCCCCCC(=O)O` (stereo not drawn) [HYA, 10-hydroxy-cis-12-octadecenoic acid], which oxidation rate is on record?
Answer: 2.9 µM/min
